Assay results reported in the supplement of paper PMC10307832.

Tests used:
Test in all cases: relative viability (nuclei count vs DMSO), 5 days (fraction); higher = more cells survive
NCI-H1437 = system: NCI-H1437
In short: (§1)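 Lung cancer cell lines in 1536-well plates got either a single drug or a fixed anchor-drug dose together with five library-drug doses (not always all listed) in √10 steps, by pin tool, on the day after seeding. Nuclei were counted after 5 days, and relative viability is the treated-to-vehicle ratio of nuclei counts. Values are medians of duplicate plates.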

A549 = system: A549
In short: as §1

Calu-6 = system: Calu-6
In short: as §1

IA-LM = system: IA-LM
In short: as §1

NCI-H1703 = system: NCI-H1703
In short: as §1

NCI-H1355 = system: NCI-H1355
In short: as §1

LCLC-97TM1 = system: LCLC-97TM1
In short: as §1

NCI-H596 = system: NCI-H596
In short: as §1

EBC-1 = system: EBC-1
In short: as §1

NCI-H1299 = system: NCI-H1299
In short: as §1

SMILES: Cc1cn(-c2cc(NC(=O)c3ccc(C)c(Nc4nccc(-c5cccnc5)n4)c3)cc(C(F)(F)F)c2)cn1 [Nilotinib] + CC1(C)CCC(c2ccc(Cl)cc2)=C(CN2CCN(c3ccc(C(=O)NS(=O)(=O)c4ccc(N[C@H](CCN5CCOCC5)CSc5ccccc5)c(S(=O)(=O)C(F)(F)F)c4)cc3)CC2)C1 [Navitoclax] (partner 0.5 µM)
- relative viability (NCI-H1437; first compound 0.001 µM): 1.02
- relative viability (NCI-H1437; first compound 0.003162 µM): 1.34
- relative viability (NCI-H1437; first compound 0.01 µM): 1.15
- relative viability (NCI-H1437; first compound 0.03162 µM): 0.766
- relative viability (NCI-H1437; first compound 0.1 µM): 0.925
- relative viability (A549; first compound 0.001 µM): 1.2
- relative viability (A549; first compound 0.003162 µM): 1.47
- relative viability (A549; first compound 0.01 µM): 1.14
- relative viability (A549; first compound 0.03162 µM): 0.789
- relative viability (Calu-6; first compound 0.001 µM): 0.781
- relative viability (Calu-6; first compound 0.003162 µM): 0.845
- relative viability (Calu-6; first compound 0.01 µM): 1.05
- relative viability (Calu-6; first compound 0.03162 µM): 0.641
- relative viability (Calu-6; first compound 0.1 µM): 0.929
- relative viability (IA-LM; first compound 0.001 µM): 0.499
- relative viability (IA-LM; first compound 0.003162 µM): 0.603
- relative viability (IA-LM; first compound 0.01 µM): 0.795
- relative viability (IA-LM; first compound 0.03162 µM): 0.747
- relative viability (IA-LM; first compound 0.1 µM): 0.889
- relative viability (NCI-H1703; first compound 0.001 µM): 1.01
- relative viability (NCI-H1703; first compound 0.003162 µM): 0.482
- relative viability (NCI-H1703; first compound 0.01 µM): 0.325
- relative viability (NCI-H1703; first compound 0.03162 µM): 0.229
- relative viability (NCI-H1355; first compound 0.001 µM): 1
- relative viability (NCI-H1355; first compound 0.003162 µM): 1.14
- relative viability (NCI-H1355; first compound 0.01 µM): 1.12
- relative viability (NCI-H1355; first compound 0.03162 µM): 0.928
- relative viability (NCI-H1355; first compound 0.1 µM): 0.893
- relative viability (LCLC-97TM1; first compound 0.001 µM): 0.322
- relative viability (LCLC-97TM1; first compound 0.003162 µM): 0.425
- relative viability (LCLC-97TM1; first compound 0.01 µM): 0.478
- relative viability (LCLC-97TM1; first compound 0.03162 µM): 0.445
- relative viability (LCLC-97TM1; first compound 0.1 µM): 0.379
- relative viability (NCI-H596; first compound 0.001 µM): 0.924
- relative viability (NCI-H596; first compound 0.003162 µM): 1.12
- relative viability (NCI-H596; first compound 0.01 µM): 1.13
- relative viability (NCI-H596; first compound 0.03162 µM): 0.673
- relative viability (NCI-H596; first compound 0.1 µM): 0.922
- relative viability (EBC-1; first compound 0.001 µM): 0.351
- relative viability (EBC-1; first compound 0.003162 µM): 0.373
- relative viability (EBC-1; first compound 0.01 µM): 0.332
- relative viability (EBC-1; first compound 0.03162 µM): 0.289
- relative viability (EBC-1; first compound 0.1 µM): 0.186
- relative viability (NCI-H1299; first compound 0.003162 µM): 1.08
- relative viability (NCI-H1299; first compound 0.01 µM): 1.13
- relative viability (NCI-H1299; first compound 0.03162 µM): 1.07
- relative viability (NCI-H1299; first compound 0.1 µM): 1.03

SMILES: CCNC(=O)c1noc(-c2cc(C(C)C)c(O)cc2O)c1-c1ccc(CN2CCOCC2)cc1 [Luminespib] + Cc1nc(NC(=O)N2CCC[C@H]2C(N)=O)sc1-c1ccnc(C(C)(C)C(F)(F)F)c1 [Alpelisib] (partner 2 µM)
- relative viability (NCI-H1437; first compound 0.002 µM): 0.878
- relative viability (NCI-H1437; first compound 0.006325 µM): 0.919
- relative viability (NCI-H1437; first compound 0.02 µM): 1.16
- relative viability (NCI-H1437; first compound 0.06325 µM): 0.294
- relative viability (NCI-H1437; first compound 0.2 µM): 0.107
- relative viability (A549; first compound 0.002 µM): 0.804
- relative viability (A549; first compound 0.006325 µM): 0.71
- relative viability (A549; first compound 0.02 µM): 0.255
- relative viability (A549; first compound 0.06325 µM): 0.0392
- relative viability (A549; first compound 0.2 µM): 0.036
- relative viability (Calu-6; first compound 0.002 µM): 0.975
- relative viability (Calu-6; first compound 0.006325 µM): 0.949
- relative viability (Calu-6; first compound 0.02 µM): 0.783
- relative viability (Calu-6; first compound 0.06325 µM): 0.131
- relative viability (Calu-6; first compound 0.2 µM): 0.12
- relative viability (IA-LM; first compound 0.002 µM): 0.752
- relative viability (IA-LM; first compound 0.006325 µM): 0.788
- relative viability (IA-LM; first compound 0.02 µM): 0.268
- relative viability (IA-LM; first compound 0.06325 µM): 0.0487
- relative viability (IA-LM; first compound 0.2 µM): 0.05
- relative viability (NCI-H1703; first compound 0.002 µM): 0.378
- relative viability (NCI-H1703; first compound 0.006325 µM): 0.367
- relative viability (NCI-H1703; first compound 0.02 µM): 0.186
- relative viability (NCI-H1703; first compound 0.06325 µM): 0.133
- relative viability (NCI-H1703; first compound 0.2 µM): 0.116
- relative viability (NCI-H1355; first compound 0.002 µM): 0.915
- relative viability (NCI-H1355; first compound 0.006325 µM): 0.913
- relative viability (NCI-H1355; first compound 0.02 µM): 0.403
- relative viability (NCI-H1355; first compound 0.06325 µM): 0.903
- relative viability (NCI-H1355; first compound 0.2 µM): 0.594
- relative viability (LCLC-97TM1; first compound 0.002 µM): 0.286
- relative viability (LCLC-97TM1; first compound 0.006325 µM): 0.254
- relative viability (LCLC-97TM1; first compound 0.02 µM): 0.19
- relative viability (LCLC-97TM1; first compound 0.06325 µM): 0.323
- relative viability (LCLC-97TM1; first compound 0.2 µM): 0.194
- relative viability (NCI-H596; first compound 0.002 µM): 0.517
- relative viability (NCI-H596; first compound 0.006325 µM): 0.45
- relative viability (NCI-H596; first compound 0.06325 µM): 0.44
- relative viability (NCI-H596; first compound 0.2 µM): 0.464
- relative viability (EBC-1; first compound 0.002 µM): 0.825
- relative viability (EBC-1; first compound 0.006325 µM): 0.741
- relative viability (EBC-1; first compound 0.02 µM): 0.228
- relative viability (EBC-1; first compound 0.06325 µM): 0.146
- relative viability (EBC-1; first compound 0.2 µM): 0.131
- relative viability (NCI-H1299; first compound 0.002 µM): 1
- relative viability (NCI-H1299; first compound 0.006325 µM): 1
- relative viability (NCI-H1299; first compound 0.02 µM): 1.15
- relative viability (NCI-H1299; first compound 0.06325 µM): 0.961
- relative viability (NCI-H1299; first compound 0.2 µM): 0.483

SMILES: Nc1cccc2c1CN(C1CCC(=O)NC1=O)C2=O (stereo not given) [Lenalidomide] + CS(=O)(=O)CCNCc1ccc(-c2ccc3ncnc(Nc4ccc(OCc5cccc(F)c5)c(Cl)c4)c3c2)o1 [Lapatinib] (partner 2 µM)
- relative viability (NCI-H1437; first compound 0.253 µM): 0.692
- relative viability (NCI-H1437; first compound 0.8 µM): 0.758
- relative viability (NCI-H1437; first compound 2.53 µM): 1.11
- relative viability (NCI-H1437; first compound 8 µM): 0.914
- relative viability (A549; first compound 0.253 µM): 1.06
- relative viability (A549; first compound 0.8 µM): 1.09
- relative viability (A549; first compound 2.53 µM): 0.972
- relative viability (A549; first compound 8 µM): 1.02
- relative viability (Calu-6; first compound 0.253 µM): 0.971
- relative viability (Calu-6; first compound 0.8 µM): 1.09
- relative viability (Calu-6; first compound 2.53 µM): 1.17
- relative viability (Calu-6; first compound 8 µM): 1.13
- relative viability (IA-LM; first compound 0.253 µM): 0.647
- relative viability (IA-LM; first compound 0.8 µM): 0.557
- relative viability (IA-LM; first compound 2.53 µM): 0.613
- relative viability (IA-LM; first compound 8 µM): 0.532
- relative viability (NCI-H1703; first compound 0.253 µM): 1.06
- relative viability (NCI-H1703; first compound 0.8 µM): 1.78
- relative viability (NCI-H1703; first compound 2.53 µM): 1.42
- relative viability (NCI-H1703; first compound 8 µM): 1.24
- relative viability (NCI-H1355; first compound 0.253 µM): 1
- relative viability (NCI-H1355; first compound 0.8 µM): 0.623
- relative viability (NCI-H1355; first compound 2.53 µM): 0.963
- relative viability (NCI-H1355; first compound 8 µM): 0.606
- relative viability (LCLC-97TM1; first compound 0.8 µM): 0.602
- relative viability (LCLC-97TM1; first compound 2.53 µM): 1.09
- relative viability (LCLC-97TM1; first compound 8 µM): 0.623
- relative viability (NCI-H596; first compound 0.253 µM): 1.14
- relative viability (NCI-H596; first compound 0.8 µM): 0.919
- relative viability (NCI-H596; first compound 2.53 µM): 1.1
- relative viability (NCI-H596; first compound 8 µM): 0.995
- relative viability (EBC-1; first compound 0.253 µM): 0.211
- relative viability (EBC-1; first compound 0.8 µM): 0.205
- relative viability (EBC-1; first compound 2.53 µM): 0.217
- relative viability (EBC-1; first compound 8 µM): 0.235
- relative viability (NCI-H1299; first compound 0.253 µM): 0.961
- relative viability (NCI-H1299; first compound 0.8 µM): 0.873
- relative viability (NCI-H1299; first compound 2.53 µM): 0.948
- relative viability (NCI-H1299; first compound 8 µM): 1.01
